According to US9216991B2 (Ares Trading S.A., priority 2012, dated 2015):
Structures can show the parent of a compound that is named as a salt.

These molecules were tested against T1, IRAK4 (Homo sapiens, UniProt Q9NWZ3) (assay: IRAK4 Enzymatic Assay). Conditions: His-TEV-IRAK4 20 ng/well, ATP 2 μM, STK1-biotin peptide 300 nM, 3 hours at 30° C., FlashPlate radioactivity.
T1 construct: His (N); TEV cleavage site (N)
T1 sequence (Q9NWZ3 1-460): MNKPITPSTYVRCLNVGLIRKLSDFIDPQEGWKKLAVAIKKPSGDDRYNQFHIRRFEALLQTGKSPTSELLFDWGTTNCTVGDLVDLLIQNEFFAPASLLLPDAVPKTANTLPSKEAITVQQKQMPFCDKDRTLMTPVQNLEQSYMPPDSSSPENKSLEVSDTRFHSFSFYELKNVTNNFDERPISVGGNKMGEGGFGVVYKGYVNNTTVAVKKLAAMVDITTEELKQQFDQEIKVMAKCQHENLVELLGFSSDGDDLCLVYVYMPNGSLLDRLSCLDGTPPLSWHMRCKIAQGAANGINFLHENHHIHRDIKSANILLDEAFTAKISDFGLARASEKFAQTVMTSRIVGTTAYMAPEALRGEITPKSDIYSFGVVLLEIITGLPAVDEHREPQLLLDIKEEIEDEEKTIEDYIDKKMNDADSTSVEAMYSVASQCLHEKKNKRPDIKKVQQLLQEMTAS
Assay type: biochemical
Summary of the method: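 Recombinant His-TEV-tagged IRAK4 (20 ng/well) phosphorylates biotinylated STK1 peptide (300 nM) with 2 μM ATP plus [^33P]ATP, 3 h at 30 °C in pH 7.0 HEPES buffer with MgCl2 and MnCl2; compounds tested 20 μM to 1 nM. Reaction stopped with EDTA; incorporated radioactivity counted on streptavidin FlashPlates.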

Row | Structure (SMILES) | IC50 [nM]
1 | Cn1cc(-c2cccc(-c3ncc(-c4cnn([C@H]5CC[C@](O)(CO)CC5)c4)cn3)c2)cn1 [Example 258, Cis-1-Hydroxymethyl-4-(4-{2-[3-(1-methyl-1H-pyrazol-4-yl)-phenyl]-pyrimidin-5-yl}-pyrazol-1-yl)-cyclohexanol] | < 100
2 | Cn1cc(-c2cccc(-c3ncc(-c4cnn(C5CCN(C6COC6)CC5)c4)cn3)c2)cn1 [Example 28, 2-[3-(1-Methyl-1H-pyrazol-4-yl)-phenyl]-5-[1-(1-oxetan-3-yl-piperidin-4-yl)-1H-pyrazol-4-yl]-pyrimidine] | 100 to 1000
3 | Cn1cc(-c2cccc(-c3ncc(-c4cnn(CC(O)c5ccccn5)c4)cn3)c2)cn1 (stereo not shown) [Example 215, 2-(4-{2-[3-(1-Methyl-1H-pyrazol-4-yl)-phenyl]-pyrimidin-5-yl}-pyrazol-1-yl)-1-pyridin-2-yl-ethanol] | 100 to 1000
4 | Cn1cc(-c2cccc(-c3ncc(-c4cnn([C@H]5CC[C@@H](O)CC5)c4)cn3)c2)cn1 [Example 196, Cis-4-(4-{2-[3-(1-Methyl-1H-pyrazol-4-yl)-phenyl]-pyrimidin-5-yl}-pyrazol-1-yl)-cyclohexanol] | 100 to 1000
5 | Cn1cc(-c2cccc(-c3ncc(-c4cnn(C5CCNCC5)c4)cn3)c2)nn1 [Example 72, 2-[3-(1-Methyl-1H-[1,2,3]triazol-4-yl)-phenyl]-5-(1-piperidin-4-yl-1H-pyrazol-4-yl)-pyrimidine hydrochloride] | 1000 to 5000
6 | Cn1cc(-c2cccc(-c3ncc(-c4cnn(C5C[C@H]6CC[C@@H](C5)N6)c4)cn3)c2)cn1 (stereo partly drawn) [Example 110, (1R,5S)-3-(4-{2-[3-(1-Methyl-1H-pyrazol-4-yl)-phenyl]-pyrimidin-5-yl}-pyrazol-1-yl)-8-aza-bicyclo[3.2.1]octane] | 100 to 1000
7 | CC(C)CNC(=O)[C@H]1CC[C@H](n2cc(-c3cnc(-c4cccc(-c5cnn(C)c5)c4)nc3)cn2)CC1 [Example 173, Trans-4-(4-{2-[3-(1-Methyl-1H-pyrazol-4-yl)-phenyl]-pyrimidin-5-yl}-pyrazol-1-yl)-cyclohexanecarboxylic acid isobutyl-amide] | < 100
8 | Cn1cc(-c2cccc(-c3ncc(-c4cnn(C5CNC5)c4)cn3)c2)cn1 [Example 26, 5-(1-Azetidin-3-yl-1H-pyrazol-4-yl)-2-[3-(1-methyl-1H-pyrazol-4-yl)-phenyl]-pyrimidine hydrochloride] | 1000 to 5000
9 | Cn1cc(-c2cccc(-c3ncc(-c4cnn([C@H]5CC[C@H](C(=O)N6C[C@H](O)[C@@H](O)C6)CC5)c4)cn3)c2)cn1 [Example 244, ((3S,4S)-3,4-Dihydroxy-pyrrolidin-1-yl)-[4-(4-{2-[3-(1-methyl-1H-pyrazol-4-yl)-phenyl]-pyrimidin-5-yl}-pyrazol-1-yl)-cyclohexyl]-methanone] | < 100
10 | CN(C)CCn1cc(-c2cnc(-c3cccc(-c4cnn(C)c4)c3)nc2)cn1 [Example 11, Dimethyl-[2-(4-{2-[3-(1-methyl-1H-pyrazol-4-yl)-phenyl]-pyrimidin-5-yl}-pyrazol-1-yl)-ethyl]-amine] | 1000 to 5000
11 | COCCO[C@H]1CC[C@H](n2cc(-c3cnc(-c4cccc(-c5cnn(C)c5)c4)nc3)cn2)CC1 [Example 217, trans-5-{1-[4-(2-Methoxy-ethoxy)-cyclohexyl]-1H-pyrazol-4-yl}-2-[3-(1-methyl-1H-pyrazol-4-yl)-phenyl]-pyrimidine] | < 100
12 | COCCC(=O)N1CCC(n2cc(-c3cnc(-c4cccc(-c5cnn(C)c5)c4)nc3)cn2)CC1 [Example 109, 3-Methoxy-1-[4-(4-{2-[3-(1-methyl-1H-pyrazol-4-yl)-phenyl]-pyrimidin-5-yl}-pyrazol-1-yl)-piperidin-1-yl]-propan-1-one] | 100 to 1000
13 | Cn1cc(-c2cccc(-c3ncc(-c4cnn([C@@H]5CCC[S@@+]([O-])C5)c4)cn3)c2)cn1 (racemic) [Example 235, 2-[3-(1-Methyl-1H-pyrazol-4-yl)-phenyl]-5-[1-(Trans-1-oxo-tetrahydro-thiopyran-3-yl)-1H-pyrazol-4-yl]-pyrimidine] | 100 to 1000
14 | Cn1cc(-c2cccc(-c3ncc(-c4cnn([C@H]5CC[C@@H](N6CCOCC6)CC5)c4)cn3)c2)cn1 [Example 209, cis-4-[4-(4-{2-[3-(1-Methyl-1H-pyrazol-4-yl)-phenyl]-pyrimidin-5-yl}-pyrazol-1-yl)-cyclohexyl]-morpholine] | 1000 to 5000
15 | CC(CO)NC(=O)[C@H]1CC[C@H](n2cc(-c3cnc(-c4cccc(-c5cnn(C)c5)c4)nc3)cn2)CC1 (stereo partly drawn) [Example 188, trans-4-(4-{2-[3-(1-Methyl-1H-pyrazol-4-yl)-phenyl]-pyrimidin-5-yl}-pyrazol-1-yl)-cyclohexanecarboxylic acid (2-hydroxy-1-methyl-ethyl)-amide] | 100 to 1000
16 | Cn1cc(-c2cccc(-c3ncc(-c4cnn(CCC(=O)N5CC6(COC6)C5)c4)cn3)c2)cn1 [Example 101, 3-(4-{2-[3-(1-Methyl-1H-pyrazol-4-yl)-phenyl]-pyrimidin-5-yl}-pyrazol-1-yl)-1-(2-oxa-6-aza-spiro[3.3]hept-6-yl)-propan-1-one] | 1000 to 5000
17 | Cn1cc(-c2cccc(-c3ncc(-c4cnn([C@H]5CC[C@H](C(=O)NCC(O)CO)CC5)c4)cn3)c2)cn1 (stereo partly drawn) [Example 242, Trans-4-(4-{2-[3-(1-Methyl-1H-pyrazol-4-yl)-phenyl]-pyrimidin-5-yl}-pyrazol-1-yl)-cyclohexanecarboxylic acid (2,3-dihydroxy-propyl)-amide] | < 100
18 | Cn1cc(-c2cccc(-c3ncc(-c4cnn([C@H]5CC[C@H](N6CCOC6=O)CC5)c4)cn3)c2)cn1 [Example 255, 3-[4-(4-{2-[3-(1-Methyl-1H-pyrazol-4-yl)-phenyl]-pyrimidin-5-yl}-pyrazol-1-yl)-cyclohexyl]-oxazolidin-2-one] | 100 to 1000
19 | Cn1cc(-c2cccc(-c3ncc(-c4cnn(C5CCSC5)c4)cn3)c2)cn1 (stereo not shown) [Example 216, 2-[3-(1-Methyl-1H-pyrazol-4-yl)-phenyl]-5-[1-(tetrahydro-thiophen-3-yl)-1H-pyrazol-4-yl]-pyrimidine] | 100 to 1000
20 | COCCC(=O)N[C@H]1CC[C@@H](n2cc(-c3cnc(-c4cccc(-c5cnn(C)c5)c4)nc3)cn2)CC1 [Example 166, Cis-3-Methoxy-N-[4-(4-{2-[3-(1-methyl-1H-pyrazol-4-yl)-phenyl]-pyrimidin-5-yl}-pyrazol-1-yl)-cyclohexyl]-propionamide] | 100 to 1000

The next lines start with the values.

Row | IC50 [nM] | Structure (SMILES)
21 | 1000 to 5000 | Cn1cc(-c2cccc(-c3ncc(-c4cnn(Cc5ncco5)c4)cn3)c2)cn1 [Example 46, 2-[3-(1-Methyl-1H-pyrazol-4-yl)-phenyl]-5-(1-oxazol-2-ylmethyl-1H-pyrazol-4-yl)-pyrimidine]
22 | 1000 to 5000 | Cn1cc(-c2cccc(-c3ncc(-c4cnn(C[C@@H]5CCCN5)c4)cn3)c2)cn1 [Example 70, 2-[3-(1-Methyl-1H-pyrazol-4-yl)-phenyl]-5-(1-(S)-1-pyrrolidin-2-ylmethyl-1H-pyrazol-4-yl)-pyrimidine hydrochloride]
23 | < 100 | CN(C)CCNC(=O)[C@H]1CC[C@H](n2cc(-c3cnc(-c4cccc(-c5cnn(C)c5)c4)nc3)cn2)CC1 [Example 171, 4-(4-{2-[3-(1-Methyl-1H-pyrazol-4-yl)-phenyl]-pyrimidin-5-yl}-pyrazol-1-yl)-cyclohexanecarboxylic acid (2-dimethylamino-ethyl)-amide]
24 | 100 to 1000 | CNC(=O)[C@H]1CCC[C@@H](n2cc(-c3cnc(-c4cccc(-c5cnn(C)c5)c4)nc3)cn2)C1 (relative stereo) [Example 180, cis-3-(4-{2-[3-(1-Methyl-1H-pyrazol-4-yl)-phenyl]-pyrimidin-5-yl}-pyrazol-1-yl)-cyclohexanecarboxylic acid methylamide]
25 | 100 to 1000 | CC1COCCN1C(=O)Cn1cc(-c2cnc(-c3cccc(-c4cnn(C)c4)c3)nc2)cn1 (stereo not shown) [Example 147, 1-(3-Methyl-morpholin-4-yl)-2-(4-{2-[3-(1-methyl-1H-pyrazol-4-yl)-phenyl]-pyrimidin-5-yl}-pyrazol-1-yl)-ethanone]
26 | 1000 to 5000 | CN1C[C@H]2CC1CN2C(=O)Cn1cc(-c2cnc(-c3cccc(-c4cnn(C)c4)c3)nc2)cn1 (stereo in doubt) [Example 148, 1-((1R,4R)-5-Methyl-2,5-diaza-bicyclo[2.2.1]hept-2-yl)-2-(4-{2-[3-(1-methyl-1H-pyrazol-4-yl)-phenyl]-pyrimidin-5-yl}-pyrazol-1-yl)-ethanone]
27 | < 100 | Cn1cc(-c2cccc(-c3ncc(-c4cnn([C@H]5CC[C@H](C(N)=O)CC5)c4)cn3)c2)cn1 [Example 206, Trans-4-(4-{2-[3-(1-Methyl-1H-pyrazol-4-yl)-phenyl]-pyrimidin-5-yl}-pyrazol-1-yl)-cyclohexanecarboxylic acid amide]
28 | 100 to 1000 | CC(C)[C@H](N)C(=O)N1CCC(n2cc(-c3cnc(-c4cccc(-c5cnn(C)c5)c4)nc3)cn2)CC1 [Example 124, (S)-2-Amino-3-methyl-1-[4-(4-{2-[3-(1-methyl-1H-pyrazol-4-yl)-phenyl]-pyrimidin-5-yl}-pyrazol-1-yl)-piperidin-1-yl]-butan-1-one]
